Reference: paper PMC4552634, “A New Set of Chemical Starting Points with Plasmodium falciparum Transmission-Blocking Potential for Antimalarial Drug Discovery” (PLoS ONE, 2015)
Read-outs that look alike come from different tables or passages of the source.

How the values were obtained:
[1] = test system: P. falciparum stage V gametocytes; assay: Gametocytocidal ATP bioluminescence assay (single point 5 μM and 1 μM, dose-response); assay type: cell-based, Plasmodium falciparum; conditions: for Ratio IC50 HepG2/IC50 P. falciparum: IC50 HepG2 divided by IC50 P. falciparum gametocytes
[2] = Cytotoxicity in HepG2 cells (intracellular ATP, ATPlite, 48 h); assay type: cell-based, human; conditions: human, HepG2 cells
[3] = test system: luciferase reaction (BacTiter-Glo); assay: Interference assay (inhibition of the BacTiter-Glo luciferase reaction); assay type: biochemical; set-up: concentration or dose not given beside the values; conditions: ATP interference assay
Protocol: To discard possible false-positive results, we performed an interference assay in parallel. […] […]. The ATP solution was made by dissolving ATP powder (ATP standard from the ATPlite 1 step assay kit, reference 6016731, Perkin Elmer) in culture medium. The positive control used was the Luciferase Inhibitor I Calbiochem (Merck, 119113) at 100 μM.

[4] = test system: P. falciparum asexual stages; conditions: TCAMS data, cited from earlier work
[5] = test system: HepG2 cells; assay: Cytotoxicity in HepG2 cells (intracellular ATP, ATPlite, 48 h); assay type: cell-based, human; conditions: HepG2 cells; IC50 per ratio column head; unit inferred
[6] = test system: P. falciparum stage V gametocytes; assay: microbe, parasite or virus in culture; set-up: BacTiter-Glo ATP luminescence viability of purified stage V gametocytes in 384-well plates, per cent inhibition versus DMSO; conditions: Plasmodium falciparum, 48 h, read-out: % Inhibition
[7] = Plasmodium falciparum, P. falciparum gametocytes, average, read-out: IC50 Pf Gametocytes average, IC50 (µM) average
[8] = IC50 per ratio column head, unit inferred, read-out: Cytotoxicity in HepG2
[9] = asexual stages, read-out: IC50 asexual
[10] = sexual stages (gametocytes), dose-response, read-out: IC50 sexual
[11] = P. falciparum gametocytes, average, read-out: IC50 Pf Gametocytes average, IC50 (µM) average
[12] = P. falciparum asexual stages, read-out: IC50 (µM) Pf asexual stages

Row | Structure (SMILES) | % Control luminiscence [3] [%] | Ratio IC50 HepG2/IC50 P. falciparum [1] | IC50 [1, 7] [µM] | IC50 at 48 h [2, 8] [µM] | IC50 [4, 9] [µM] | IC50 [1, 10] [µM] | IC50 [1, 11] [µM] | IC50 [5] [nM] | inhibition at 5 µM [6] [%] | IC50 [4, 12] [µM] | IC50 ([1]; Plasmodium falciparum, read-out: IC50 Pf Gametocytes average, IC50 (µM) average) [µM] | IC50 ([2]; IC50 per ratio column head, unit inferred) [nM] | IC50 ([1]; Plasmodium falciparum, sexual stages (gametocytes), dose-response, read-out: IC50 sexual) [µM] | IC50 at 48 h ([2]; HepG2, 48 h exposure, intracellular ATP, read-out: IC50 (μM) Cytotoxicity HepG2) [µM]
1 | Fc1ccc2[nH]c(-c3cccc(-c4ccc(CN5CCC(CCN6CCCCC6)CC5)cc4)c3)nc2c1 [TCMDC-133940] | 100 | 12 | 0.43 | 5.2 | 0.142 | 0.433 | – | – | – | – | – | – | – | –
2 | CN1CCN(CCCCNc2c3ccccc3nc3ccccc23)CC1 [TCMDC-137479] | 100 | 2.57 | 1.32 | 3.39 | 0.704 | 1.32 | – | – | – | – | – | – | – | –
3 | [O-][s+]1c(Cl)c(-c2ccc(Cl)cc2)c2ccc(Cl)cc21 (stereo not shown) [TCMDC-124011] | 100 | – | 0.02 | 12.8 | 0.993 | – | – | – | – | – | – | – | – | –
4 | COc1ccc2c(NN=Cc3ccc(OC)c4ccccc34)cc(C)nc2c1 [TCMDC-142218] | 97 | 10 | – | – | 0.599 | 0.773 | 0.77 | 7860 | 97.5 | – | – | – | – | –
5 | Cc1cccc2nc(-c3ccc(-c4ccc(CN5CCC(CCN6CCCCC6)CC5)cc4)cc3)[nH]c12 [TCMDC-133929] | 100 | 14 | 0.27 | 3.7 | 0.144 | 0.267 | – | – | – | – | – | – | – | –
6 | Fc1ccc2[nH]c(-c3ccc(-c4ccc(CN5CCC(CCN6CCCCC6)CC5)cc4)s3)nc2c1 [TCMDC-133932] | 100 | 27 | 0.14 | 3.79 | 0.142 | – | – | – | – | – | – | – | – | –
7 | Fc1ccc2[nH]c(-c3ccc(-c4ccc(CN5CCC(CCN6CCCCC6)CC5)cc4)cc3)nc2c1 [TCMDC-133924] | 100 | 12 | 0.46 | 5.3 | 0.129 | – | – | – | – | – | – | – | – | –
8 | S=C(NN=Cc1ccccn1)Nc1ccc2c(c1)OCCO2 [TCMDC-132009] | 100 | 4 | 0.83 | 3.28 | 1.05 | – | – | – | – | – | – | – | – | –
9 | FC(F)c1nc2ccccc2n1-c1nc(N2CCOCC2)nc(N2CCOCC2)n1 [TCMDC-137004] | 98 | 0.291 | 5.44 | 1.58 | 0.761 | 5.44 | – | – | – | – | – | – | – | –
10 | FC(F)(F)c1ccc2[nH]c(-c3ccc(-c4cccc(CN5CCC(CCN6CCCCC6)CC5)c4)cc3)nc2c1 [TCMDC-133941] | 100 | 6.67 | 0.51 | 3.4 | 0.153 | – | – | – | – | – | – | – | – | –
11 | COc1ccc2nc(-c3ccccc3)cc(NCCCNc3cc(-c4ccccc4)nc4ccc(OC)cc34)c2c1.Cl [TCMDC-137734] | 100 | 4.53 | 1.21 | 5.5 | 0.122 | 1.21 | – | – | – | – | – | – | – | –
12 | Cl.c1ccc2c(NCCCCCCNc3c4ccccc4nc4ccccc34)c3ccccc3nc2c1 [TCMDC-124285] | 100 | 28 | – | – | 0.753 | 0.247 | – | – | – | – | 0.25 | 7000 | – | –
13 | N=C(NCC1CC1c1ccccc1)c1cccc(C(=N)NCC2CC2c2ccccc2)n1 (stereo not shown) [TCMDC-137456] | 100 | 15 | 0.45 | 6.8 | 1.76 | – | – | – | – | – | – | – | – | –
14 | CN1CCN(CCCN(Cc2cccc(-c3cccc(CNC4CCCC4)c3)c2)C(=O)CCC2CCCC2)CC1 [TCMDC-140555] | 100 | 9 | – | – | 0.675 | 0.807 | 0.81 | 7500 | – | – | – | – | – | –

More lines, main results first:

Row | % Control luminiscence [3] [%] | Structure (SMILES) | Ratio IC50 HepG2/IC50 P. falciparum [1] | IC50 [1, 7] [µM] | IC50 at 48 h [2, 8] [µM] | IC50 [4, 9] [µM] | IC50 [1, 10] [µM] | IC50 [1, 11] [µM] | IC50 [5] [nM] | inhibition at 5 µM [6] [%] | IC50 [4, 12] [µM] | IC50 ([1]; Plasmodium falciparum, read-out: IC50 Pf Gametocytes average, IC50 (µM) average) [µM] | IC50 ([2]; IC50 per ratio column head, unit inferred) [nM] | IC50 ([1]; Plasmodium falciparum, sexual stages (gametocytes), dose-response, read-out: IC50 sexual) [µM] | IC50 at 48 h ([2]; HepG2, 48 h exposure, intracellular ATP, read-out: IC50 (μM) Cytotoxicity HepG2) [µM]
15 | 100 | Cc1cccnc1Nc1nc(-c2ccccn2)cs1 [TCMDC-125846] | 30 | 0.1 | 3.02 | 0.687 | – | – | – | – | – | – | – | – | –
16 | 98 | CC(C)CCNC(=O)c1cnc2c(O)cccc2c1Nc1cccc(NC(=O)c2ccc(F)cc2)c1.O=C(O)C(F)(F)F [TCMDC-139606] | 4 | 1.27 | 5.27 | 0.913 | – | – | – | – | – | – | – | – | –
17 | 100 | COc1cc2nc(N3CCN(C(=O)c4c(Cl)nsc4-c4ccccc4Cl)CC3)nc(N)c2cc1OC.O=C(O)C(F)(F)F [TCMDC-138186] | 38 | 0.22 | 8.18 | 0.534 | 0.215 | – | – | – | – | – | – | – | –
18 | 97 | COc1cc2nc(N3CCC(CNC(=O)c4ccc(-c5ccc(-c6noc(C)n6)cc5)cc4)CC3)nc(N)c2cc1OC [TCMDC-138754] | 39 | 0.11 | 4.33 | 0.139 | – | – | – | – | – | – | – | – | –
19 | 92 | COc1ccc(-c2cnc3[nH]cc(-c4ccncc4)c3c2)cc1OC [TCMDC-135853] | 3.46 | 0.9 | 3.1 | 0.126 | 0.897 | – | – | – | – | – | – | – | –
20 | 100 | COc1ccc(CNC(=O)c2cnc3c(O)cccc3c2Nc2cccc(NC(=O)c3ccc(Cl)c(Cl)c3)c2)cc1.O=C(O)C(F)(F)F [TCMDC-139607] | <2.3 | 0.68 | < 1.56 | 0.604 | – | – | – | – | – | – | – | – | –
21 | 100 | Cc1cccc2nc(-c3cccc(-c4cccc(CNCCN5CCNCC5)c4)c3)[nH]c12 [TCMDC-132873] | 16 | 0.5 | 7.76 | 0.97 | 0.497 | – | – | – | – | – | – | – | –
22 | 100 | CCOc1ccc(-c2nonc2NC(=O)c2cccc(Cl)c2)cc1OCC [TCMDC-125200] | – | 0.84 | > 25 | 0.147 | – | – | – | – | 0.15 | – | – | – | –
23 | 100 | COc1ccc(C[C@H](N)C(=O)N[C@H]2[C@@H](O)[C@H](n3cnc4c(N(C)C)ncnc43)O[C@@H]2CO)cc1 [TCMDC-123493] | 5 | 0.56 | 2.95 | 0.174 | 0.563 | – | – | – | – | – | – | – | –
24 | 100 | COc1cc(NCC(C)CNCc2cn(Cc3ccccc3)c3ccccc23)nc2ccccc12 (stereo not shown) [TCMDC-140496] | 3 | 1.71 | 5 | 0.633 | – | – | – | – | – | – | – | – | –
25 | 100 | CCc1ccc(CN2CCC(CNC(=O)c3cc(-c4cccc(F)c4)cs3)C2)cc1 (stereo not shown) [TCMDC-134432] | 6 | 1.26 | 7.22 | 1.36 | 1.26 | – | – | – | – | – | – | – | –
26 | 97 | COCCn1c(-c2cccc(Cl)c2)nn(-c2ccc([N+](=O)[O-])cc2C#N)c1=S [TCMDC-134719] | >9 | – | – | 0.178 | 2.78 | 2.78 | > 25000 | – | – | – | – | – | –
27 | 100 | CCN(CC)CCCn1c(N)c(-c2nc3ccccc3[nH]2)c2nc(C#N)c(C#N)nc21 [TCMDC-123680] | 62 | – | – | 0.267 | – | 0.14 | 8700 | – | – | – | – | – | –
28 | 100 | NC1CCN(Cc2ccc(-c3ccc(-c4nc5cc(F)ccc5[nH]4)cc3)cc2)C1 (stereo not shown) [TCMDC-133872] | 9 | 0.83 | 7.25 | 0.184 | – | – | – | – | 0.18 | – | – | 0.827 | 7
29 | 100 | CC(C)CNCc1ccc(-c2ccc(CN(CCCN3CCN(C)CC3)C(=O)/C=C/c3ccccc3)cc2)cc1 [TCMDC-140546] | 7 | – | – | 0.917 | 1 | 1 | 6990 | – | – | – | – | – | –
30 | 93 | COC(=O)c1sc(-c2ccc(Cl)cc2)cc1N(CCCN1CCC(N2CCCCC2)CC1)S(=O)(=O)c1ccc(C)cc1 [TCMDC-135561] | 1.3 | – | – | 0.744 | 3.37 | 3.36 | 4370 | – | – | – | – | – | –
31 | 100 | CN1CCN(CCCN(Cc2ccc(-c3ccc(CNC4CCCC4)cc3)cc2)C(=O)CCC2CCCC2)CC1 [TCMDC-140560] | 11 | – | – | 0.886 | 0.535 | 0.53 | 6000 | – | – | – | – | – | –
32 | 98 | COc1ccc(CNCc2ccc(F)cc2)cc1-c1ccc(S(=O)(=O)NCCN2CCCC2)cc1 [TCMDC-132294] | 5.36 | – | – | 1.04 | 1.21 | 1.21 | 6500 | – | – | – | – | – | –
